As usually defined, the GI50 is the concentration at which growth is held to half of that of the control.

Experiment [1] has as its system HCC1954 basal breast cancer cell line. The experiment in a line: Cell growth inhibition, Sulforhodamine B assay (SRB). In kind it is cell-based. To be noted: Homo sapiens, HCC1954, 120 h, read-out: Cell Line GI50 Range HCC-1954. Put shortly:
(§1)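 Absorbance at 570 nm of protein-bound sulforhodamine B served as a measure of cell mass after 5 days of culture with compound. GI50 was derived from inhibition relative to DMSO-treated cells.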
On the technique in general: The SRB assay estimates cell density from bound dye.

Experiment [2] has as its system SW620 colon cancer cell line. The description is as above. In kind it is cell-based. To be noted: Homo sapiens, SW-620, 120 h, read-out: Cell Line GI50 Range SW-620, SW620 colon cancer cell line; 5 days culture; SRB. Put shortly:
as §1

For experiment [3], the system named is 184A1 immortalized breast cell line. The experiment in a line: Cell growth inhibition, SRB assay, extended panel. In kind it is cell-based. To be noted: 184A1, 120 h, read-out: GI50 Range. The procedure: (§2) The cells were cultured for 5 days before the Sulforhodamine B assay (SRB) was performed to determine the compound's cell growth inhibition activity.
(§3) Sulforhodamine B (purchased from Sigma, Oakville, ON, Canada) is a water-soluble dye that binds to the basic amino acids of the cellular proteins. Thus, colorimetric measurement of the bound dye provides an estimate of the total protein mass that is related to the cell number. the cells are fixed in situ by gently aspirating off the culture media and adding 50 μl ice cold 10% Trichloroacetic Acid (TCA) per well and incubate at 4° C. for 30-60 min, The plates are washed with water five times and allowed to air dry for 5 min. […] Following staining, plates are washed four times with 1% acetic acid to remove unbound dye and then allowed to air dry for 5 min. […] Absorbance is read at 570 nm.
(§4) The percentage (%) of relative growth inhibition was calculated by comparing to DMSO treated only cells (100%). GI50's were determined for compounds with cytotoxic activity. The GI50 was calculated using GraphPad PRISM software (GraphPad Software, Inc., San Diego, Calif., USA).
(§5) The sulforhodamine B assay (SRB) described above was use to assay test compounds against the extended panel (Table 6).

The test system of experiment [4] is BT474 breast cancer cell line. The experiment in a line: Cell growth inhibition, SRB assay, extended panel. To be noted: Homo sapiens, BT-474, 120 h, read-out: GI50 Range. In kind it is cell-based. The method, then:
as §2, §3, §4, §5

Experiment [5] deals with HCT-15 colon cancer cell line. The experiment can be described thus: Cell growth inhibition, SRB assay, extended panel. The format is cell-based. To be noted: Homo sapiens, HCT-15, 120 h, read-out: GI50 Range. The procedure: as §2, §3, §4, §5
Experiment [6] concerns HCT116+/+ colon cancer cell line. The experiment in a line: Cell growth inhibition, SRB assay, extended panel. To be noted: Homo sapiens, HCT-116, 120 h, read-out: GI50 Range. The format is cell-based. The method, then:
as §2, §3, §4, §5

The subject of experiment [7] is HCT116+/− colon cancer cell line. The experiment can be described thus: Cell growth inhibition, SRB assay, extended panel. In kind it is cell-based. To be noted: Homo sapiens, HCT-116, 120 h, read-out: GI50 Range. The method, then:
as §2, §3, §4, §5

The subject of experiment [8] is PC-3 prostate cancer cell line. The experiment in a line: Cell growth inhibition, SRB assay, extended panel. In kind it is cell-based. To be noted: 120 h, read-out: GI50 Range. The procedure:
as §2, §3, §4, §5

In experiment [9] the test system is SK-OV-3 ovarian cancer cell line. The experiment in a line: Cell growth inhibition, SRB assay, extended panel. The format is cell-based. To be noted: Homo sapiens, SK-OV-3, 120 h, read-out: GI50 Range. The method, then: as §2, §3, §4, §5
In experiment [10] the test system is SKBR3 breast cancer cell line. The experiment in a line: Cell growth inhibition, SRB assay, extended panel. The format is cell-based. To be noted: Homo sapiens, SK-BR-3, 120 h, read-out: GI50 Range. The procedure:
as §2, §3, §4, §5

Experiment [11] deals with SW 626 ovarian cancer cell line. The experiment can be described thus: Cell growth inhibition, SRB assay, extended panel. In kind it is cell-based. To be noted: Homo sapiens, SW626, 120 h, read-out: GI50 Range. The method, then:
as §2, §3, §4, §5

The test system of experiment [12] is HUV-EC-C cells. The experiment in a line: In Vitro Angiogenesis Assay (tube formation). To be noted: HUV-EC-C cells on ECMatrix, 4 hr; FIGS. 1 and 2.
Experiment [13] relates to human mammary epithelial primary cells (HMEC). The experiment in a line: Cell growth inhibition, Sulforhodamine B assay (SRB). To be noted: 120 h, read-out: Cell Line GI50 Range HMEC.

As for `CN(C)Cc1ccc(/C=C/c2n[nH]c3cc([C@@H]4C[C@@]45C(=O)Nc4ccccc45)ccc23)cc1` (racemic) [Example A23, (1R*,2S*)-(E)-2-(3-(4-((dimethylamino)methyl)styryl)-1H-indazol-6-yl)spiro[cyclopropane-1,3′-indolin]-2′-one 2,2,2-trifluoroacetate], the concentration for 50% growth inhibition (GI50) in [1] is 1 to 10 µM; in [2], less than 0.1 µM; in experiment [3] it was 1 to 50 µM; in experiment [4], 1 to 50 µM; in experiment [5], 1 to 50 µM; in [6], 1 to 50 µM. Further, the GI50 is 1 to 50 µM in experiment [7]; 1 to 50 µM in experiment [8]; 1 to 50 µM in [9]; 1 to 50 µM in experiment [10]; 1 to 50 µM in [11]; greater than 10 µM in experiment [13]. Moreover, the “anti-angiogenic effect (tube formation, % of control tube count)” value in experiment [12] was “anti-agiogenic effects at submicromolar concentrations”.

For the origin of these results see patent US8481525B2, “Kinase inhibitors and method of treating cancer with same” (University of Health Network, priority 2009, dated 2013).
